Test results published in patent publication US9751881B2, “Inhibitors of the renal outer medullary potassium channel” (Merck Sharp & Dohme Corp., priority 2013, dated 2017).
Structures can show the parent of a compound that is named as a salt.

Target: hROMK (hKir1.1) (Homo sapiens (Human), UniProt P48048)
Test: Thallium Flux Assay (ROMK channel functional thallium flux, FLIPR-Tetra)
Assay type: cell-based
Details: HEK293 cells stably expressing hROMK (hKir1.1); unit not given in Table 4 (IC50 potencies less than 1 μM); read-out: ROMK TI IC50
Method: Cell Culture Conditions—HEK293 cells stably expressing hROMK (hKir1.1) were grown at 37° C. in a 10% CO2 humidified incubator in complete growth media: Dulbecco's Modified Eagle Medium supplemented with non-essential amino acids, Penicillin/Streptomycin/Glutamine, G418 and FBS. At >80% confluency, the media was aspirated from the flask and rinsed with 10 mL calcium/magnesium-free PBS. […] To dislodge the cell, the side of the flask was gently banged with one's hand. The cells completely titrated and then the cells were transferred to 25 mL complete media, centrifuged at 1,500 rpm for 6 min followed by resuspension in complete growth media and determine cell concentration. […] Under ideal growth conditions and appropriate tissue culture practices, this cell line is stable for 40-45 passages.
FluxOR Kit Components (Invitrogen F10017)
• FluxOR™ Reagent (Component A) • FluxOR™ Assay Buffer (Component B)—10× Concentrate • PowerLoad™ Concentrate (Component C)—100× Concentrate • Probenecid (Component D)—Lyophilized sample is kept at −20° C. Water soluble, 100× after solubilization in 1 mL water. […] Store at 4° C. • Thallium sulfate (Tl2SO4) Concentrate (Component G)—50 mM in water. […] Can be stored at room temperature • Stimulant Buffer (prepared at 5× final concentration in 1× FluxOR™Chloride-Free Buffer): 7.5 mM thallium sulfate and 0.75 mM potassium sulfate (to give a final assay concentration of 3 mM Thallium/0.3 mM potassium). Store at 4° C. when not in use. If kept sterile, this solution is good for months.
• 1. Seed HEK-hKir1.1 cells (50 μl at 20,000 cells/well) in 384-well PDL coated Microplates • 2. Allow cells to adhere overnight in humidified 37° C./10% CO2 incubator • 3. Completely remove cell growth media from microplate and replace with 25 μl loading buffer • 4. Incubate Microplate at room temperature, protected form light, for 90 min • 5. Remove loading buffer and replace with 25 μl 1× Assay Buffer±test compound. • 6. Incubate microplate at room temperature, protected from light, for 30 min • 7. […] Excitation=400 nm, Emission=460 & 580 nm. Collect data for ˜10 min.
Data Calculation—The fluorescence intensity of wells containing 3 μM of a standard control ROMK inhibitor of the present invention was used to define the ROMK-sensitive component of thallium flux. Fluorescence in the presence of test compounds was normalized to control values to provide % fluorescence change.

Sequence of hROMK (hKir1.1) (P48048 whole entry): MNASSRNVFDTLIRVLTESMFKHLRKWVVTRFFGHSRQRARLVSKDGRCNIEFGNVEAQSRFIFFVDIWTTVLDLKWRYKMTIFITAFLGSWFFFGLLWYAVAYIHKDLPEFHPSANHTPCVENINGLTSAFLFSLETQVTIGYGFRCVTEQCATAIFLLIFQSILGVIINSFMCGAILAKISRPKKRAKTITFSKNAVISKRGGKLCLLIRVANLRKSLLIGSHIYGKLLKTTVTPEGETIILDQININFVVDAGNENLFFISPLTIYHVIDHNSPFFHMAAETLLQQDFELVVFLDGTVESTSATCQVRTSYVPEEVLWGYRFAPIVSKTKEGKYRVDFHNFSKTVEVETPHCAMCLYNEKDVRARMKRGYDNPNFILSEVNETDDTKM

| SMILES | IC50 |
| --- | --- |
| Cc1c([C@@H](O)CN2CCC3(CC2)CN(c2ccc(S(C)(=O)=O)cc2)C(=O)O3)ccc2c1COC2=O [Example 94, (R)-8-(2-Hydroxy-2-(4-methyl-1-oxo-1,3-dihydroisobenzofuran-5-yl)ethyl)-3-(4-(methylsulfonyl)phenyl)-1-oxa-3,8-diazaspiro[4.5]decan-2-one] | 159 nM |
| Cc1c([C@@H](O)CN2CCC3(CC2)CC(=O)N(c2ccc(S(=O)(=O)C4CC4)cc2)C3)ccc2c1COC2=O [Example 70, 2-[4-(Cyclopropylsulfonyl)phenyl]-8-[(2R)-2-hydroxy-2-(4-methyl-1-oxo-1,3-dihydro-2-benzofuran-5-yl)ethyl]-2,8-diazaspiro[4.5]decan-3-one hydrochloride] | 248 nM |
| CCS(=O)(=O)c1cnc(N2CCC3(CCN(C[C@H](O)c4ccc5c(c4C)COC5=O)CC3)C2)cn1 [Example 63, 5-[(1R)-2-{2-[5-(Ethylsulfonyl)pyrazin-2-yl]-2,8-diazaspiro[4.5]dec-8-yl}-1-hydroxyethyl]-4-methyl-2-benzofuran-1(3H)-one hydrochloride] | 83.2 nM |
| CCS(=O)(=O)c1ccc(N2CCC3(CCN(C[C@H](O)c4ccc5c(c4C)COC5=O)CC3)C2)cn1 [Example 30, (R)-5-(2-(2-(6-(Ethylsulfonyl)pyridin-3-yl)-2,8-diazaspiro[4.5]decan-8-yl)-1-hydroxyethyl)-4-methylisobenzofuran-1(3H)-one] | 271 nM |
| COc1cc(C(O)CN2CCC3(CC2)CCN(c2ccc(S(C)(=O)=O)cn2)C3)c(Cl)cc1C#N (stereo not shown) [Example 40, 5-Chloro-4-(1-hydroxy-2-(2-(5-(methylsulfonyl)pyridin-2-yl)-2,8-diazaspiro[4.5]decan-8-yl)ethyl)-2-methoxybenzonitrile] | 168 nM |
| Cc1c([C@@H](O)CN2CCC3(CC2)CCN(c2cnc(C#N)cn2)C3)ccc2c1COC2=O [Example 83] | 4.7 nM |
| N#Cc1ccc(N2CCC3(CCN(CC(O)c4ccc5c(c4C4CC4)COC5=O)CC3)C2)nc1 (stereo not shown) [Example 26, 6-(8-(2-(4-Cyclopropyl-1-oxo-1,3-dihydroisobenzofuran-5-yl)-2-hydroxyethyl)-2,8-diazaspiro[4.5]decan-2-yl)nicotinonitrile] | 458 nM |
| Cc1c(C(O)CN2CCC3(CC2)CCN(c2cc(C#N)ncn2)CC3)ccc2c1COC2=O (stereo not shown) [Example 106] | 26.3 nM |
| Cc1c([C@@H](O)CN2CCC3(CC2)CN(c2ccc(S(C)(=O)=O)nc2)CCO3)ccc2c1COC2=O [Example 99, (R)-5-(1-Hydroxy-2-(4-(6-(methylsulfonyl)pyridin-3-yl)-1-oxa-4,9-diazaspiro[5.5]undecan-9-yl)ethyl)-4-methylisobenzofuran-1(3H)-one] | 168 nM |
| N#Cc1ccc(N2CCC3(CCN(CC(O)c4cc5c(cc4C4CC4)C(=O)OC5)CC3)C2)nc1 (stereo not shown) [Example 25, 6-(8-(2-(6-Cyclopropyl-1-oxo-1,3-dihydroisobenzofuran-5-yl)-2-hydroxyethyl)-2,8-diazaspiro[4.5]decan-2-yl)nicotinonitrile] | 74.4 nM |
| Cc1c([C@@H](O)CN2CCC3(CC2)CN(c2ccc(C#N)cn2)C3=O)ccc2c1COC2=O [Example 44, (R)-6-(7-(2-Hydroxy-2-(4-methyl-1-oxo-1,3-dihydroisobenzofuran-5-yl)ethyl)-1-oxo-2,7-diazaspiro[3.5]nonan-2-yl)nicotinonitrile] | 369 nM |
| Cc1c([C@@H](O)CN2CCC3(CC2)CCN(c2ccnc(-c4ccoc4)n2)C3=O)ccc2c1COC2=O [Example 115, (R)-2-(2-(furan-3-yl)pyrimidin-4-yl)-8-(2-hydroxy-2-(4-methyl-1-oxo-1,3-dihydroisobenzofuran-5-yl)ethyl)-2,8-diazaspiro[4.5]decan-1-one] | 286 nM |
| COc1cc(N2CCC3(CCN(C[C@H](O)c4ccc5c(c4C)COC5=O)CC3)C2)ncc1C#N [Example 82] | 32.8 nM |
| Cc1c([C@@H](O)CN2CCC3(CC2)CCN(c2nnc(S(C)(=O)=O)s2)C3=O)ccc2c1COC2=O [Example 76, 8-[(2R)-2-Hydroxy-2-(4-methyl-1-oxo-1,3-dihydro-2-benzofuran-5-yl)ethyl]-2-[5-(methylsulfonyl)-1,3,4-thiadiazol-2-yl]-2,8-diazaspiro[4.5]decan-1-one hydrochloride] | 100 nM |
| COc1cc(N2CC3(CCN(C[C@H](O)c4ccc5c(c4C)COC5=O)CC3)C2)ncc1C#N [Example 50, (R)-6-(7-(2-hydroxy-2-(4-methyl-1-oxo-1,3-dihydroisobenzofuran-5-yl)ethyl)-2,7-diazaspiro[3.5]nonan-2-yl)-4-methoxynicotinonitrile] | 42.4 nM |
| Cc1c([C@@H](O)CN2CCC3(CC2)CN(c2ccc(S(C)(=O)=O)cn2)C(=O)O3)ccc2c1COC2=O [Example 91, (R)-8-(2-hydroxy-2-(4-methyl-1-oxo-1,3-dihydroisobenzofuran-5-yl)ethyl)-3-(5-(methylsulfonyl)pyridin-2-yl)-1-oxa-3,8-diazaspiro[4.5]decan-2-one] | 208 nM |
| Cc1c([C@@H](O)CN2CCC3(CC2)CCN(c2ccc(S(C)(=O)=O)nc2)CC3)ccc2c1COC2=O [Example 103, (R)-5-(1-hydroxy-2-(9-(6-(methylsulfonyl)148yridine-3-yl)-3,9-diazaspiro[5.5]undecan-3-yl)ethyl)-4-methylisobenzofuran-1(3H)-one] | 563 nM |
| Cc1c(C(O)CN2CCC3(CC2)CCN(c2ncc(C#N)cn2)CC3)ccc2c1COC2=O (stereo not shown) [Example 109] | 14.5 nM |
| Cc1cc(C#N)c(N2CCC3(CCN(CC(O)c4ccc5c(c4C)COC5=O)CC3)CC2)nn1 (stereo not shown) [Example 112] | 161 nM |
| Cc1cc2c(cc1C(O)CN1CCC3(CC1)CCN(c1ccc(C#N)cn1)C3)COC2=O (single isomer, unassigned) [Example 24B, 6-(8-(2-Hydroxy-2-(6-methyl-1-oxo-1,3-dihydroisobenzofuran-5-yl)ethyl)-2,8-diazaspiro[4.5]decan-2-yl)nicotinonitrile] | 31.4 nM |
| COc1cc(N2CC3(CCN(C[C@H](O)c4ccc5c(c4C)COC5=O)CC3)OC2=O)ncc1C#N [Example 95, (R)-6-(8-(2-Hydroxy-2-(4-methyl-1-oxo-1,3-dihydroisobenzofuran-5-yl)ethyl)-2-oxo-1-oxa-3,8-diazaspiro[4.5]decan-3-yl)-4-methoxynicotinonitrile] | 84 nM |
| Cc1nc(N2CCC3(CCN(C[C@H](O)c4ccc5c(c4C)COC5=O)CC3)C2)ccc1S(C)(=O)=O [Example 36, (R)-5-(1-Hydroxy-2-(2-(6-methyl-5-(methylsulfonyl)pyridin-2-yl)-2,8-diazaspiro[4.5]decan-8-yl)ethyl)-4-methylisobenzofuran-1(3H)-one] | 75.7 nM |
| Cc1c([C@@H](O)CN2CCC3(CC2)CN(c2ccc(C#N)cn2)CCO3)ccc2c1COC2=O [Example 101, (R)-6-(9-(2-Hydroxy-2-(4-methyl-1-oxo-1,3-dihydroisobenzofuran-5-yl)ethyl)-1-oxa-4,9-diazaspiro[5.5]undecan-4-yl)nicotinonitrile] | 39.6 nM |
| Cc1c([C@@H](O)CN2CCC3(CC2)CCN(c2cncc(C#N)c2)C3)ccc2c1COC2=O [Example 12, (R)-5-(8-(2-Hydroxy-2-(4-methyl-1-oxo-1,3-dihydroisobenzofuran-5-yl)ethyl)-2,8-diazaspiro[4.5]decan-2-yl)nicotinonitrile] | 33 nM |
| Cc1c(C(O)CN2CCC3(CC2)CCN(c2nccnc2C#N)CC3)ccc2c1COC2=O (stereo not shown) [Example 110] | 135 nM |
| N#Cc1ccc(N2CCC3(CCN(CC4OCCc5c4ccc4c5COC4=O)CC3)C2)nc1 (stereo not shown) [Example 27, 6-(8-((3-oxo-3,6,8,9-tetrahydro-1H-furo[3,4-f]isochromen-6-yl)methyl)-2,8-diazaspiro[4.5]decan-2-yl)nicotinonitrile] | 103 nM |
| Cc1c([C@@H](O)CN2CCC3(CC2)CCN(c2cnc(S(C)(=O)=O)cn2)C3=O)ccc2c1COC2=O [Example 42, (R)-8-(2-Hydroxy-2-(4-methyl-1-oxo-1,3-dihydroisobenzofuran-5-yl)ethyl)-2-(5-(methylsulfonyl)pyrazin-2-yl)-2,8-diazaspiro[4.5]decan-1-one] | 216 nM |
| COc1cc(N2CC3(CCN(C[C@H](O)c4ccc5c(c4C)COC5=O)CC3)OCC2=O)ncc1C#N [Example 102, (R)-6-(9-(2-Hydroxy-2-(4-methyl-1-oxo-1,3-dihydroisobenzofuran-5-yl)ethyl)-3-oxo-1-oxa-4,9-diazaspiro[5.5]undecan-4-yl)-4-methoxynicotinonitrile] | 16.7 nM |
